Experimental data reported in article PMC11852716, “c-di-GMP phosphodiesterase ProE interacts with quorum sensing protein PqsE to promote pyocyanin production in Pseudomonas aeruginosa” (mSphere, 2025).

Molecular target: T1, ProE (Pseudomonas aeruginosa, UniProt Q9HTQ9)
T1 construct: gene PA5295
Assay: surface plasmon resonance
Assay type: binding

T1 sequence (Q9HTQ9 entry or part of it): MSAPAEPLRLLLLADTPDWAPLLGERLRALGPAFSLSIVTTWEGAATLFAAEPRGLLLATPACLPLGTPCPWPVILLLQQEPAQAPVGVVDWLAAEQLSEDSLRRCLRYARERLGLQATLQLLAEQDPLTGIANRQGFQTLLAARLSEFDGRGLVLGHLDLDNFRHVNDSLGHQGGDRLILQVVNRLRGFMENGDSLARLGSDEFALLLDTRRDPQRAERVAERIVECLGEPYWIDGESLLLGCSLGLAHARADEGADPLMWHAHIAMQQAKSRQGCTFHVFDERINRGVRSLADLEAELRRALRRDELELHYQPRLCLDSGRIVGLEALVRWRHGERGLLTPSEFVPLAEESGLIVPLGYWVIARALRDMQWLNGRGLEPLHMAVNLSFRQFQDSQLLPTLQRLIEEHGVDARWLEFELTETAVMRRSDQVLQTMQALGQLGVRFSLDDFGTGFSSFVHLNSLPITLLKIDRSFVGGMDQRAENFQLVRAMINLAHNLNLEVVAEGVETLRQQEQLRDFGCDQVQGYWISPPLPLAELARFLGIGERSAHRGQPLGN

## Nc1nc2c(ncn2[C@@H]2O[C@@H]3CO[P@](=O)(O)O[C@H]4[C@@H](O)[C@H](n5cnc6c(=O)[nH]c(N)nc65)O[C@@H]4CO[P@](=O)(O)O[C@H]3[C@H]2O)c(=O)[nH]1 [c-di-GMP]
  Kd: 2720 nM
